Where a SMILES comes first, the peptide text is derived from it. [ ]: non-standard residue; d: D form. The star is where a group is joined. DOTA = O=C(O)CN1CCN(CC(=O)O)CCN(CC(=O)*)CCN(CC(=O)O)CC1; Aib = CC(C)(N)C(=O)O
Key:
[1] = target: human GLP-1 receptor (hGLP-1R) (Homo sapiens, UniProt P43220); assay: cAMP response (HTRF) in PSC-HEK-293 cells expressing human GLP-1 receptor; type: cell-based
Procedure: (§1) Each vial contained 1.8 ml cells. The vials were slowly frozen to −80° C. in isopropanol, and then transferred in liquid nitrogen for storage.
(§2) Prior to their use, frozen cells were thawed quickly at 37° C. and washed (5 min at 900 rpm) with 20 ml cell buffer (lx HBSS; 20 mM HEPES, with 0.1% BSA).
(§3) For measurement of cAMP generation, 5 μl cells (final 5000 cells/well) and 5 μl of test compound were added to a 384-well plate, followed by incubation for 30 min at room temperature.
(§4) The cAMP generated was determined using a kit from Cisbio Corp. based on HTRF (Homogenous Time Resolved Fluorescence). The cAMP assay was performed according to manufacturer's instructions (Cisbio).
(§5) cAMP content of cells was determined using a kit from Cisbio Corp. (cat. no. 62AM4PEC) based on HTRF (Homogenous Time Resolved Fluorescence). […] Medium was then removed and cells washed with PBS lacking calcium and magnesium, followed by proteinase treatment with accutase (Sigma-Aldrich cat. no. A6964). Detached cells were washed and resuspended in assay buffer (1×HBSS; 20 mM HEPES, 0.1% BSA, 2 mM IBMX) and cellular density determined. They were then diluted to 400000 cells/ml and 25 μl-aliquots dispensed into the wells of 96-well plates. For measurement, 25 μl of test compound in assay buffer was added to the wells, followed by incubation for 30 minutes at room temperature.

[2] = target: T1, glucagon receptor (hGCGR) (Homo sapiens, UniProt P47871); assay: cAMP response (HTRF) in PSC-HEK-293 cells expressing human glucagon receptor; type: cell-based
T1 construct: expressed in transfected cells
Procedure: as §1, §2, §3, §4, §5

[3] = Chemical stability testing of peptides in solution (UHPLC); type: physicochemical; settings: 0.5 mg/mL, pH 7.3 TRIS buffer
Procedure: For chemical stability testing, the target concentration was 0.5 mg/mL pure compound in a pH 7.3 TRIS buffer (50 mM) containing m-cresol (30 mM), sodium chloride (85 mM) and polysorbate 20 (8 μM). The solution was stored for 7 days at 4° C., or 40° C. After that time, the solution was analysed by UHPLC (Analytical UHPLC Method D).
The “% Purity” after 7 days is defined by the % Relative purity at day 7 in relation to the % Relative purity at t0 following the equation
% Purity=[(% Relative purity t7)×100)]/% Relative purity t0
The % Relative purity at t0 was calculated by dividing the peak area of the peptide at t0 by the sum of all peak areas at t0 following the equation
% Relative purity t0=[(peak area t0)×100]/sum of all peak areas t0
Likewise, the % relative purity t7 was calculated by dividing the peak are of the peptide at t7 by the sum of all peak areas at t7 following the equation
% Relative purity t7=[(peak area t7)×100]/sum of all peak areas t7
Chemical stability of peptidic compounds was assessed as described in Methods.

T1 sequence (P47871 26-477): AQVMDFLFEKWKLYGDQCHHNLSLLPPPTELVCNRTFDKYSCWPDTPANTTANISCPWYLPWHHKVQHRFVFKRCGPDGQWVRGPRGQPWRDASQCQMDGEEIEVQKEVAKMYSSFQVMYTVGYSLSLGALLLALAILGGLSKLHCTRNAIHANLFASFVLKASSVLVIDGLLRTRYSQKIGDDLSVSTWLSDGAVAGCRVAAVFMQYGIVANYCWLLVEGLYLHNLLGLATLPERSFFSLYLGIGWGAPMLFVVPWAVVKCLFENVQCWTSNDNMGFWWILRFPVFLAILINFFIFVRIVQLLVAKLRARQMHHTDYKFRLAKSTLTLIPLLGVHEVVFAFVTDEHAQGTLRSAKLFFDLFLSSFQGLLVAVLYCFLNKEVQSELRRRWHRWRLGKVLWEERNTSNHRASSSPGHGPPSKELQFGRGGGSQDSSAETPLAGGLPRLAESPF
Sequence of human GLP-1 receptor (hGLP-1R) (P43220 24-463): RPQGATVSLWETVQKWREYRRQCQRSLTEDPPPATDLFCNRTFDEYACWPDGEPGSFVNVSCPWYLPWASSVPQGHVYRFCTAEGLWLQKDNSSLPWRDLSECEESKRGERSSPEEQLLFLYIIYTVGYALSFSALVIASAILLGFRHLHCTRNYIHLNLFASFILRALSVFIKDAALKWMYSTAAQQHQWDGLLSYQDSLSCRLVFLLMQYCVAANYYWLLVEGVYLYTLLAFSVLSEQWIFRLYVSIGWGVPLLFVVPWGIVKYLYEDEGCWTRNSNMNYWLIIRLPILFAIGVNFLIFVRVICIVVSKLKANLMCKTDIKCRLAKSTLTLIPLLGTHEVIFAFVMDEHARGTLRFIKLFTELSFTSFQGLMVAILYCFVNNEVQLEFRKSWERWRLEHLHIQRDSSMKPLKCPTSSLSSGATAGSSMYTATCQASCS
Procedure for physchem: Depending on the presence of remaining material as judged by visual inspection the compounds were determined to be soluble at the target concentration in the respective buffer system.
Solubility buffer system A) 100 mM Phosphate buffer pH 7.4
Solubility buffer system B) Acetate buffer pH 4.5
Solubility buffer system C) 100 mM Histidine buffer pH 5.5
Solubility buffer system D) 10 mM Glycine pH 2.5
Solubility buffer system E) 10 mM Glycine pH 2.0
Solubility buffer system F) 50 mM TRIS buffer, 30 mM m-cresol, 85 mM sodium chloride, 8 μM polysorbate 20 pH 7.3
Peptide samples were prepared in the respective solubility buffer system and solubility was assessed as described in Methods.

CC[C@H](C)[C@H](NC(=O)[C@H](CO)NC(=O)[C@H](CC(C)C)NC(=O)[C@H](CC(=O)O)NC(=O)[C@H](CO)NC(=O)[C@@H](NC(=O)[C@H](Cc1ccccc1)NC(=O)[C@@H](NC(=O)CNC(=O)[C@H](CCC(=O)O)NC(=O)C(C)(C)NC(=O)[C@@H](N)Cc1ccc(O)cc1)[C@@H](C)O)[C@@H](C)CC)C(=O)N[C@@H](C)C(=O)N[C@@H](CC(C)C)C(=O)N[C@@H](CC(=O)O)C(=O)N[C@@H](CCCNC(=N)N)C(=O)N[C@H](C(=O)N[C@@H](Cc1c[nH]cn1)C(=O)N[C@@H](CCC(N)=O)C(=O)N[C@@H](CCC(=O)O)C(=O)N[C@@H](CCC(=O)O)C(=O)N[C@@H](Cc1ccccc1)C(=O)N[C@H](C(=O)N[C@@H](CCC(=O)O)C(=O)N[C@@H](Cc1c[nH]c2ccccc12)C(=O)N[C@@H](CC(C)C)C(=O)N[C@@H](CC(C)C)C(=O)N[C@@H](C)C(=O)NCC(=O)NCC(=O)N[C@@H](CCCCNC(=O)CN1CCN(CC(=O)O)CCN(CC(=O)O)CCN(CC(=O)O)CC1)C(N)=O)[C@@H](C)CC)[C@@H](C)CC [SEQ ID NO: 3, Y-Aib-EGTFISDLSIALDRIHQEEFIEWLLAGGK(DOTA)-NH2] (H-Y[Aib]EGTFISDLSIALDRIHQEEFIEWLLAGGK(DOTA)-NH2; N-terminus assumed)
EC50 [1]: > 10 nM
EC50 [2]: > 10 nM
% Purity after 7 days ([3]; 4° C.): >97%
% Purity after 7 days ([3]; 40° C.): >97%
solubility (physchem; 10 mM glycine buffer, pH 2): ≥ 500 µg/mL
solubility (physchem; 10 mM glycine buffer, pH 2.5): ≥ 500 µg/mL
solubility (physchem; 100 mM histidine buffer, pH 5.5): ≥ 500 µg/mL
solubility (physchem; 100 mM phosphate buffer, pH 7.4): ≥ 500 µg/mL
solubility (physchem; acetate buffer, pH 4.5): < 500 µg/mL
solubility (physchem; pH 7.3): ≥ 500 µg/mL

Reference: patent US20230127047A1, “SELECTIVE GIP RECEPTOR AGONISTS COMPRISING A CHELATING MOIETY FOR IMAGING AND THERAPY PURPOSES” (ANTAROS MEDICAL AB, priority 2020, published 2023)
